ChEMBL document CHEMBL1157715, “Probes for narcotic receptor mediated phenomena. 40. N-substituted cis-4a-ethyl-1,2,3,4,4a,9a-hexahydrobenzofuro[2,3-c]pyridin-8-ols” (Bioorg Med Chem, 2010)

Key:
Type in all cases: cell-based
[1] = target: Kappa-type opioid receptor (Homo sapiens, UniProt P41145); assay: Displacement of [3H]U69593 from kappa opioid receptor expressed in CHO cells
Mu-type opioid receptor = Mu-type opioid receptor (Homo sapiens, UniProt P35372); assay: Displacement of [3H]DAMGO from mu opioid receptor expressed in CHO cells
Sequence of Mu-type opioid receptor (P35372 whole entry): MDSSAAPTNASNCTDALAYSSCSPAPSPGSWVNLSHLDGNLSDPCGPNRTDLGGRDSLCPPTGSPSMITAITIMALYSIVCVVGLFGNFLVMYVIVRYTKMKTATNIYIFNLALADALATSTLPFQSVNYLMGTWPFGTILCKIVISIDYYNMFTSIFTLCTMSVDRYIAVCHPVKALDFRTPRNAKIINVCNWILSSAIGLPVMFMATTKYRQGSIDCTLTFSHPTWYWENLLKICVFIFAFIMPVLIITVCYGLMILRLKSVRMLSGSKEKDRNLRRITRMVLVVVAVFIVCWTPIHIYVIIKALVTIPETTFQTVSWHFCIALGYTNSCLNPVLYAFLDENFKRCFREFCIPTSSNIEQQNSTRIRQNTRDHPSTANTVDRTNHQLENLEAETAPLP

[2] = target: Delta-type opioid receptor (Homo sapiens, UniProt P41143); assay: Displacement of [3H]DADLE from delta opioid receptor expressed in CHO cells
Sequence of Delta-type opioid receptor (P41143 whole entry): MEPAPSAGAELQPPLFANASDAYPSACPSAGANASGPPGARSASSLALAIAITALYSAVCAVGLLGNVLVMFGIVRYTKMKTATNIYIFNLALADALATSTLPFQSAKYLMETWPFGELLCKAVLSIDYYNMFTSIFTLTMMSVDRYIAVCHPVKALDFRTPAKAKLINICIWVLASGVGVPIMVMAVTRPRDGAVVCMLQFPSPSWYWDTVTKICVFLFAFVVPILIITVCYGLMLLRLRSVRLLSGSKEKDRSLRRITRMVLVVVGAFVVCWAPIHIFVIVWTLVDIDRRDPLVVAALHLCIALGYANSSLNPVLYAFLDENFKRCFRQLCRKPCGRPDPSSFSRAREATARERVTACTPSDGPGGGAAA

Sequence of Kappa-type opioid receptor (P41145 whole entry): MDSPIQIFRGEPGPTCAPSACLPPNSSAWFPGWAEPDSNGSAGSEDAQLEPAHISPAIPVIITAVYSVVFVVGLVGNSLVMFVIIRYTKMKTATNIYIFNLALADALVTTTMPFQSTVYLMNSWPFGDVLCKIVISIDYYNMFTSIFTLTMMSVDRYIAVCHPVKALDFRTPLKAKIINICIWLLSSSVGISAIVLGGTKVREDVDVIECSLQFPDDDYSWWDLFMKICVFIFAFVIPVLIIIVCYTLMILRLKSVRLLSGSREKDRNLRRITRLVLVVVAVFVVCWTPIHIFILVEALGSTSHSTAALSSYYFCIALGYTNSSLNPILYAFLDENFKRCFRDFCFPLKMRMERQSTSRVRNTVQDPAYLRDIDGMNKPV

SMILES	Ki [1]	Ki (Mu-type opioid receptor)	Ki [2]
CC[C@@]12CCN(Cc3ccc(F)cc3)C[C@@H]1Oc1c(O)cccc12 (racemic)	3380 nM	> 2700 nM	> 4500 nM
CN1CC[C@@]2(CCc3ccccc3)c3cccc(O)c3O[C@H]2C1 (racemic)	2880 nM	740 nM	> 4300 nM
CC[C@@]12CCN(CCc3ccccc3)C[C@@H]1Oc1ccc(O)cc12	88 nM	0.7 nM	75 nM
CC[C@@]12CCN(CC3CC3)C[C@@H]1Oc1c(O)cccc12 (racemic)	10000 nM	4670 nM	6150 nM
Oc1ccc2c(c1)C1CCN(CC3CC3)CC1O2 (stereo unspecified)	–	4 nM	–
CC[C@@]12CCN(CCc3ccc(F)cc3)C[C@@H]1Oc1c(O)cccc12 (racemic)	935 nM	354 nM	> 4500 nM
Oc1ccc2c(c1)C1CCN(CCc3ccccc3)CC1O2 (stereo unspecified)	–	0.9 nM	–
CC[C@@]12CCN(C)C[C@@H]1Oc1c(O)cccc12 (racemic)	> 10000 nM	795 nM	7480 nM
CC[C@@]12CCN(CCc3ccccc3)C[C@@H]1Oc1c(O)cccc12 (racemic)	2220 nM	1630 nM	7210 nM
CC[C@@]12CCN(CCc3ccc([N+](=O)[O-])cc3)C[C@@H]1Oc1c(O)cccc12 (racemic)	720 nM	670 nM	2260 nM
